Reference: patent US20120046353A1 (priority 2010, published 2012)

Molecular target: neuraminidase of Tamiflu-resistant novel influenza virus (point mutation H→Y) (Influenza A virus, UniProt C3W5S3, H275Y)

Row | SMILES | Inhibitory activity against neuraminidase of Tamiflu-resistant novel influenza virus, in words
1 | COc1cc(O)c(C)c(O)c1C(=O)/C=C/c1ccccc1 [Compound 8, 2′,4′-dihydroxy-3′-methyl-6′-methoxychalcone] | excellent inhibitory activity
2 | COc1c(C)c(O)c(C)c(O)c1C(=O)/C=C/c1ccccc1O [Compound 14, 2,2′,4′-trihydroxy-6′-methoxy-3′,5′-dimethylchalcone] | excellent inhibitory activity
3 | COc1c(C)c(O)c(C)c(O)c1C(=O)/C=C/c1ccc(O)cc1 [Compound 4, 4,2′,4′-trihydroxy-6′-methoxy-3′,5′-dimethylchalcone] | excellent inhibitory activity
4 | COc1c(C)c(O)c(C)c(O)c1C(=O)/C=C/c1ccccc1 [Compound 5, 2′,4′-dihydroxy-6′-methoxy-3′,5′-dimethylchalcone] | excellent inhibitory activity
